The source made the active and inactive calls. The rule behind the calls is not given here.
Tests used:
[1] = biological target: T1, Transcriptional enhancer factor TEF-3 (Homo sapiens, UniProt Q15561); assay: Binding affinity to N-terminal His6 tagged human TEAD4-YBD (217 to 434 residues) expressed in Escherichia coli C43 (DE3) cells assessed as covalent modification at Cys367 residue by HPLC-MS/MS analysis
[2] = biological target: T1, Transcriptional enhancer factor TEF-3; assay: Binding affinity to N-terminal His6-tagged human TEAD4-YBD (217 to 434 residues) expressed in Escherichia coli C43 (DE3) cells assessed as change in melting temperature at 1:2 ratio by SYPRO-dye based thermal shift assay
[3] = test system: Transcriptional enhancer factor TEF-3 (Homo sapiens), Q15561 [C330A]; assay: Binding affinity to TEAD4-YBD C330A mutant (unknown origin) assessed as change in melting temperature by SYPRO-dye based thermal shift assay
[4] = biological target: Fatty acid-binding protein, adipocyte (Homo sapiens) (UniProt P15090); assay: Binding affinity to FABP4 (unknown origin) at 1:1 ratio by fluorescence based thermal shift assay
[5] = biological target: Fatty acid-binding protein 5 (Homo sapiens) (UniProt Q01469); assay: Binding affinity to FABP5 (unknown origin) at 1:1 ratio by fluorescence based thermal shift assay
[6] = biological target: T1, Transcriptional enhancer factor TEF-3; assay: Binding affinity to Flag-tagged TEAD4 (unknown origin) expressed in HEK293T cells assessed as modification in Cys367 residue at 50 uM after 4 hrs by MS analysis; type: cell-based
Homo sapiens = species on record: Homo sapiens; assay: Inhibition of human Ros V2262A mutant(1883 to end residues) at 10 uM using KKKSPGEYVNIEFG as substrate measured after 40 mins in presence of [gamma33P]ATP by scintillation counting method relative to control
[7] = biological target: Insulin-like growth factor 1 receptor (Homo sapiens) (UniProt P08069); assay: Inhibition of recombinant human IGF1R activated (959 to end residues) at 10 uM using KKKSPGEYVNIEF as substrate after 40 mins in presence of [gamma33P]ATP by scintillation counting method relative to control
[8] = biological target: Interferon-induced, double-stranded RNA-activated protein kinase (Homo sapiens) (UniProt P19525); assay: Inhibition of recombinant human PKR (252 to end residues) at 10 uM using RSRSRSRSRSRSRSR as substrate measured after 40 mins in presence of [gamma33P]ATP by scintillation counting method relative to control
[9] = test system: RAC-gamma serine/threonine-protein kinase (Homo sapiens), Q9Y243 [S472D]; assay: Inhibition of recombinant human PKBgamma S472D mutant (117 to end residues) at 10 uM using GRPRTSSFAEGKK as substrate after 40 mins by in presence of [gamma33P]ATP by scintillation counting method relative to control
[10] = biological target: Death-associated protein kinase 2 (Homo sapiens) (UniProt Q9UIK4); assay: Inhibition of full-length recombinant human DAPK2 at 10 uM using calmodulin as substrate after 40 mins by in presence of [gamma33P]ATP by scintillation counting method relative to control
[11] = biological target: Proto-oncogene tyrosine-protein kinase Src (Homo sapiens) (UniProt P12931); assay: Inhibition of recombinant full length human cSRC at 10 uM using KVEKIGEGTYGVVYK as substrate measured after 40 mins in presence of [gamma33P]ATP by scintillation counting method relative to control
[12] = biological target: Myosin light chain kinase 2, skeletal/cardiac muscle (Homo sapiens) (UniProt Q9H1R3); assay: Inhibition of recombinant full-length human MYLK2 at 10 uM using KKLNRTLSFAEPG as substrate measured after 40 mins in presence of [gamma33P]ATP by scintillation counting method relative to control
[13] = biological target: Serine/threonine-protein kinase Chk2 (Homo sapiens) (UniProt O96017); assay: Inhibition of recombinant human CHK2 (5 to end residues) at 10 uM using KKKVSRSGLYRSPSMPENLNRPR as substrate measured after 40 mins in presence of [gamma33P]ATP by scintillation counting method relative to control
[14] = biological target: Serine/threonine-protein kinase Chk1 (Homo sapiens) (UniProt O14757); assay: Inhibition of recombinant full length human CHK1 at 10 uM using KKKVSRSGLYRSPSMPENLNRPR as substrate measured after 40 mins in presence of [gamma33P]ATP by scintillation counting method relative to control
[15] = biological target: CDK6/cyclin D3 (Homo sapiens) (UniProt P30281+Q00534); assay: Inhibition of recombinant full-length human CDK6/cyclinD3 at 10 uM using histone H1 as substrate measured after 40 mins in presence of [gamma33P]ATP by scintillation counting method relative to control; type: protein-complex assay
[16] = biological target: CDK2/Cyclin A2 (Homo sapiens) (UniProt P24941+P20248); assay: Inhibition of recombinant full-length human CDK2/cyclinA at 10 uM using histone H1 as substrate measured after 40 mins in presence of [gamma33P]ATP by scintillation counting method relative to control; type: protein-complex assay
[17] = biological target: Ribosomal protein S6 kinase alpha-4 (Homo sapiens) (UniProt O75676); assay: Inhibition of recombinant human MSK2 (2 to end residues) at 10 uM using GRPRTSSFAEGKK as substrate measured after 40 mins in presence of [gamma33P]ATP by scintillation counting method relative to control
[18] = biological target: Dual specificity mitogen-activated protein kinase kinase 1 (Homo sapiens) (UniProt Q02750); assay: Inhibition of recombinant full-length human MEK1 at 10 uM using unactive MAPK2 as substrate measured after 40 mins in presence of [gamma33P]ATP by scintillation counting method relative to control
[19] = biological target: Mitogen-activated protein kinase kinase kinase kinase 4 (Homo sapiens) (UniProt O95819); assay: Inhibition of recombinant human MAP4K4 (1 to 328 residues) at 10 uM using RLGRDKYKTLRQIRQ as substrate measured after 40 mins in presence of [gamma33P]ATP by scintillation counting method relative to control
[20] = biological target: Serine/threonine-protein kinase B-raf (Homo sapiens) (UniProt P15056); assay: Inhibition of recombinant human BRAF (416 to end residues) at 10 uM using myelin basic protein as substrate after 40 mins in presence of [gamma33P]ATP by scintillation counting method relative to control
[21] = biological target: Wee1-like protein kinase (Homo sapiens) (UniProt P30291); assay: Inhibition of recombinant human Wee1 (214 to end residues) at 10 uM using LSNLYHQGKFLQTFCGSPLYRRR as substrate measured after 40 mins in presence of [gamm33P]ATP by scintillation counting method relative to control
[22] = biological target: Protein arginine N-methyltransferase 1 (Homo sapiens) (UniProt Q99873); assay: Inhibition of human PRMT1 at 10 uM after 1 hr by radioisotope-based assay relative to control
[23] = biological target: Protein arginine N-methyltransferase 6 (Homo sapiens) (UniProt Q96LA8); assay: Inhibition of human PRMT6 at 10 uM relative to control
[24] = biological target: Histone acetyltransferase p300 (Homo sapiens) (UniProt Q09472); assay: Displacement of [3H]-acetyl-CoA from human P300 after 60 mins by microbeta counting method

T1 sequence (Q15561 whole entry, the tested form may be a part): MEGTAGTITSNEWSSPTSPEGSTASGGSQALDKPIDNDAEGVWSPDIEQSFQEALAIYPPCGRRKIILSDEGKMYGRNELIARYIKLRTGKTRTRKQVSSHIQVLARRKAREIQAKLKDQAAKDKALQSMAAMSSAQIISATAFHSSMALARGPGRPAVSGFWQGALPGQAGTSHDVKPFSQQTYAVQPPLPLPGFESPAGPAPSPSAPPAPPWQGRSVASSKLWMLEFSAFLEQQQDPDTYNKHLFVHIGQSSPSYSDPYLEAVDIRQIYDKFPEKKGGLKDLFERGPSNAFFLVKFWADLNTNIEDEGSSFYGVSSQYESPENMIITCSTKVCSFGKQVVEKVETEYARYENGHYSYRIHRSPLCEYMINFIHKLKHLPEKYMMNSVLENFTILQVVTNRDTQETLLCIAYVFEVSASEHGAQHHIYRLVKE
Sequence of Proto-oncogene tyrosine-protein kinase Src (Homo sapiens) (P12931 2-536 limits assumed): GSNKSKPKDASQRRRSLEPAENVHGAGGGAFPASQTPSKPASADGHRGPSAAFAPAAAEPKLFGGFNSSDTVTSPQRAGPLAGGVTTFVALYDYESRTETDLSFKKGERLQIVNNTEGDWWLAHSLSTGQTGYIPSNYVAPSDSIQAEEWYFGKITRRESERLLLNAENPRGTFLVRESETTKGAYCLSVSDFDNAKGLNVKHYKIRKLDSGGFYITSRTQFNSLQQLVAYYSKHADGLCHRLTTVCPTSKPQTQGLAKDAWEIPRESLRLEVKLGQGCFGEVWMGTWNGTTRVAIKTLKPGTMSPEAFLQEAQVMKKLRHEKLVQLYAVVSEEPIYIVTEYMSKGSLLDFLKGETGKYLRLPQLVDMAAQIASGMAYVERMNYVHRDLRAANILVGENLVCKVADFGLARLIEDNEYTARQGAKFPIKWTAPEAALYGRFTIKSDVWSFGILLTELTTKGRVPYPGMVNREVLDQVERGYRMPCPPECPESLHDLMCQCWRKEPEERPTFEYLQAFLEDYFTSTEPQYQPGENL
Sequence of Serine/threonine-protein kinase Chk1 (Homo sapiens) (O14757 whole entry): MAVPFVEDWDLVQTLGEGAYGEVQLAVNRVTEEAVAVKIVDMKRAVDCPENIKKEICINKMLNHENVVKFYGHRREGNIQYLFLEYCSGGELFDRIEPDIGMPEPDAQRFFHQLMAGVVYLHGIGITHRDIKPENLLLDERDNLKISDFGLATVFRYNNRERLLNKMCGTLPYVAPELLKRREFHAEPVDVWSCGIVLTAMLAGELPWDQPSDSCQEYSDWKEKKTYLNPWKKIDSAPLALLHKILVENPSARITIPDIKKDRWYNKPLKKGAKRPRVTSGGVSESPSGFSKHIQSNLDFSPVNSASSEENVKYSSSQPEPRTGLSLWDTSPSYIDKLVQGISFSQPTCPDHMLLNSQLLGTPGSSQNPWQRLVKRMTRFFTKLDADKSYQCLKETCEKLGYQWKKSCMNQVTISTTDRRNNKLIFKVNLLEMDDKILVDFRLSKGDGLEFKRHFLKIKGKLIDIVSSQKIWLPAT
Sequence of Transcriptional enhancer factor TEF-3 (Homo sapiens), Q15561 [C330A] (Q15561 whole entry C330A): as the sequence (Q15561 whole entry, the tested form may be a part) above, with C330A counted along it
Sequence of RAC-gamma serine/threonine-protein kinase (Homo sapiens), Q9Y243 [S472D] (Q9Y243 whole entry S472D): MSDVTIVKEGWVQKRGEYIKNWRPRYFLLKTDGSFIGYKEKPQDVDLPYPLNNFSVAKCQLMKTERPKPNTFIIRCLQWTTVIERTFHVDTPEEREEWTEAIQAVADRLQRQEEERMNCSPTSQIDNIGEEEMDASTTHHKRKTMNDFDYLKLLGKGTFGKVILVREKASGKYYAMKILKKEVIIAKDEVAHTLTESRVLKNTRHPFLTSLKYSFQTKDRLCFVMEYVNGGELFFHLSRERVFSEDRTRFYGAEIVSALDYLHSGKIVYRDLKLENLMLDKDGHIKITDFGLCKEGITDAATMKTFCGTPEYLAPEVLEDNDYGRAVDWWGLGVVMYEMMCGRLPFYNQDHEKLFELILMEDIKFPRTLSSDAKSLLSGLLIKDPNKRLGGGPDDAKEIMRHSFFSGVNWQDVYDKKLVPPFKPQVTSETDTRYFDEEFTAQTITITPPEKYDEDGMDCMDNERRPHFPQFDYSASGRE
Sequence of Death-associated protein kinase 2 (Homo sapiens) (Q9UIK4 whole entry, looked up): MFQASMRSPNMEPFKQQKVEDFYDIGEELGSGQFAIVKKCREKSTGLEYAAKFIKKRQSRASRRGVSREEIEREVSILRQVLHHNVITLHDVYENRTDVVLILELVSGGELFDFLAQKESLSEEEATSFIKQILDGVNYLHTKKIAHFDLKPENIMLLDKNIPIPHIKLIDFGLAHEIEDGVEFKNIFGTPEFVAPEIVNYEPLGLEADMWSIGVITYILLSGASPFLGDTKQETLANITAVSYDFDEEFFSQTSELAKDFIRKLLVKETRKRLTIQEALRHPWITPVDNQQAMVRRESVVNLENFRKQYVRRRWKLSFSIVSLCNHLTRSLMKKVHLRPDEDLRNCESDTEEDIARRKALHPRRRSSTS
Sequence of Serine/threonine-protein kinase Chk2 (Homo sapiens) (O96017 whole entry): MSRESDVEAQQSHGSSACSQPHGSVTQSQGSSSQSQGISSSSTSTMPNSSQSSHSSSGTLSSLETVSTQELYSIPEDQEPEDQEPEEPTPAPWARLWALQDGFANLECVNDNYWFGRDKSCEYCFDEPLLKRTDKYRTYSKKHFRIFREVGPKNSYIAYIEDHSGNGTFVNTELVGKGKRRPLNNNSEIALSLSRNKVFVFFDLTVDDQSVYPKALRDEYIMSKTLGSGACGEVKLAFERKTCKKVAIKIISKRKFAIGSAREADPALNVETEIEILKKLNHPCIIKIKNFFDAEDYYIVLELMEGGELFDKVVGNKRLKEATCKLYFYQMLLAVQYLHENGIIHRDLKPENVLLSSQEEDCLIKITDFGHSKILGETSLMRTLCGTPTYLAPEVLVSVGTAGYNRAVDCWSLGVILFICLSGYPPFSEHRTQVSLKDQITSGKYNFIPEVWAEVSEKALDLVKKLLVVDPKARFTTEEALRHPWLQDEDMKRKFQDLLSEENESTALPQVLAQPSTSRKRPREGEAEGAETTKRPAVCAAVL
Sequence of Fatty acid-binding protein, adipocyte (Homo sapiens) (P15090 2-132 limits assumed): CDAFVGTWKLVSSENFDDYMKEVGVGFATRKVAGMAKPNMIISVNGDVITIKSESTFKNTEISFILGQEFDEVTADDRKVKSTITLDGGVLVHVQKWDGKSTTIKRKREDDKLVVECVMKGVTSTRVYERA
Sequence of Myosin light chain kinase 2, skeletal/cardiac muscle (Homo sapiens) (Q9H1R3 whole entry): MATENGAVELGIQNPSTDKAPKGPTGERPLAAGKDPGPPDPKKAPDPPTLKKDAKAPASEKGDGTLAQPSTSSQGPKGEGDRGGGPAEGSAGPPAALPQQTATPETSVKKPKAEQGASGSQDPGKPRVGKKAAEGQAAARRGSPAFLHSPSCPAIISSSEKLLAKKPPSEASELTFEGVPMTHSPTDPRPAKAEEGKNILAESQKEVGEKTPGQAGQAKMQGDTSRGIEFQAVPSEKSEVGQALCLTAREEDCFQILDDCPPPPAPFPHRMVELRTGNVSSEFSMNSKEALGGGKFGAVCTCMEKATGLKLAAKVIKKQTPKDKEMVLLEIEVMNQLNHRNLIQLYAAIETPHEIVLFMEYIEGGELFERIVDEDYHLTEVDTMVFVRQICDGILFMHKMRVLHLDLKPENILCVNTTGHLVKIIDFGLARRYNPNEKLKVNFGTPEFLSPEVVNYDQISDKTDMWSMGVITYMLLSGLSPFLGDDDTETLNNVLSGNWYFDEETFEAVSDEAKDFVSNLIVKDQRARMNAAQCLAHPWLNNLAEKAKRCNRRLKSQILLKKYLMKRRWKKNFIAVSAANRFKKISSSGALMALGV
Sequence of Dual specificity mitogen-activated protein kinase kinase 1 (Homo sapiens) (Q02750 whole entry, the tested form may be a part): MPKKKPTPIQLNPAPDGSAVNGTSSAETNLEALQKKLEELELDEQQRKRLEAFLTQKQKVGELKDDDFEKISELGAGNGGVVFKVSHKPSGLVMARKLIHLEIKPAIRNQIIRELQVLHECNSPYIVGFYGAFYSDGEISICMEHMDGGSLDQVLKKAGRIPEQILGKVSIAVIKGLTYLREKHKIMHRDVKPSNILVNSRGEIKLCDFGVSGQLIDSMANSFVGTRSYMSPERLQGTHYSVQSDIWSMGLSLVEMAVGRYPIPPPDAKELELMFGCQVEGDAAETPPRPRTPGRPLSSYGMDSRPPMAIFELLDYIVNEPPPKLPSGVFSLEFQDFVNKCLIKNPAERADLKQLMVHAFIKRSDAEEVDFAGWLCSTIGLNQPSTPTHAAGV
Sequence of Protein arginine N-methyltransferase 1 (Homo sapiens) (Q99873 whole entry, looked up): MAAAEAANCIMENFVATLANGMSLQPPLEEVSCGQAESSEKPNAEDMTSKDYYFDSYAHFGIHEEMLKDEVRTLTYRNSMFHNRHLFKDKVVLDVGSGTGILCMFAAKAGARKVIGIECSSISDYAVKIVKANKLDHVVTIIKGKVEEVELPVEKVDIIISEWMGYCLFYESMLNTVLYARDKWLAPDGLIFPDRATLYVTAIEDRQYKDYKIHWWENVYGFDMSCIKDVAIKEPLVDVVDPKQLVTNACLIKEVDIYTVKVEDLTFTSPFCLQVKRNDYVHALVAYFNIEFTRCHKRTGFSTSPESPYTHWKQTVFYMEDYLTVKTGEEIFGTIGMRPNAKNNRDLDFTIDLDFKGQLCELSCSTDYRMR
Sequence of Fatty acid-binding protein 5 (Homo sapiens) (Q01469 whole entry): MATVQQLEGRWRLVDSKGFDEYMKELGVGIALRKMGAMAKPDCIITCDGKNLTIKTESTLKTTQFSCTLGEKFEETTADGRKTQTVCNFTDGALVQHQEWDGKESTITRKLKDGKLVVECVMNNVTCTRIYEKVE

C=CS(=O)(=O)Nc1ccc(Cc2ccc3ccccc3c2)cc1
Activity [1]: Active | ΔTm [2]: 7.4 °C | ΔTm [3]: 6.4 °C | Activity [4]: Active | Activity [5]: Active | Activity [6]: Active | inhibition (Homo sapiens): -6% | inhibition [7]: 16% | inhibition [8]: -8% | inhibition [9]: 8% | inhibition [10]: -7% | inhibition [11]: -4% | inhibition [12]: 6% | inhibition [13]: -7% | inhibition [14]: 5% | inhibition [15]: -1% | inhibition [16]: 10% | inhibition [17]: 12% | inhibition [18]: -3% | inhibition [19]: 7% | inhibition [20]: -8% | inhibition [21]: -4% | inhibition [22]: 3% | inhibition [23]: 7% | inhibition [24]: -3%
